We go through ten compounds from US20100249223A1, “NEW USE FOR CANNABINOID-CONTAINING PLANT EXTRACTS” (priority 2007, published 2010).

Test [1] deals with T1, TRPA1 channel (Rattus norvegicus, UniProt Q6RI86).
T1 construct: expressed in transfected cells
The test is described as follows: Intracellular Ca2+ elevation in HEK-293 cells over-expressing rat TRPA1. It is filed as cell-based. As to the method:
(§1) The applicants have conducted experiments using cannabinoid-containing plant extracts on rat recombinant TRPV1, TRPM8 channels and TRPA1 (also known as ANKTM1) channels, both were stably expressed in HEK293 cells. […] The TRPM8 channel is the receptor from menthol and icilin. The intracellular Ca^2+ concentration was determined before and after the addition of various concentrations of test compounds.
(§2) For the experiments with the TRPM8 channels menthol and icilin were used to activate the channels. For the experiments with the TRPV1 channels ionomycin was used to activate the channels. The cannabinoid-containing plant extracts were produced from cannabis plants using the subcritical CO2 extraction technique as described in the applicants granted United Kingdom patent GB2391865. The cannabinoids were then purified further using the method disclosed in the applicants granted United Kingdom patent GB2393721 to produce substantially pure cannabinoids. Un-purified plant extracts of THC and CBD were also tested in the experiments with the TRPA1 channels.
(§3) HEK293 (human embryonic kidney) cells were plated on 100 mm diameter Petri dishes and transfected at about 80% confluence with Lipofectamine 2000 (Invitrogen) using a plasmid containing the rat TRPA1, TRPV1 or TRPM8 cDNA, according to the manufacturer's protocol. A stably transfected clone was selected by Geneticin G-418 (Invitrogen) 600 μg/ml. Stable transfection was checked by quantitative real time-PCR (RT-PCR).
(§4) TRPA/TRPV1/TRPM8-HEK-293 cells were plated on 100 mm diameter Petri dishes and after 3 days loaded for 1 hour at room temperature with the cytoplasmic calcium indicator Fluo-4-AM (4 μM, Molecular Probes) dissolved in Tyrode' buffer (NaCl 145 mM; KCl 2.5 mM; CaCl2 1.5 mM; MgCl2 1.2 mM; D-Glucose 10 mM; HEPES 10 mM pH 7.4) containing Pluronic (0.02%, Molecular Probes). The cells were washed twice in Tyrode buffer, resuspended and transferred to the quartz cuvette of the spectrofluorimeter (Perkin-Elmer LS 50B) (λ excitation=488 nm; λ emission=516 nm). Intracellular Ca^2+ concentration was determined before and after the addition of various concentrations of test compounds. EC50 values were determined as the concentration of test substances required to produce half-maximal increases in intracellular Ca^2+ concentration. Curve fitting and parameter estimation was performed with Graph Pad Prism®. The same compounds were tested also on non-transfected HEK 293 cells.

Test [2] has as its target T2, TRPV1 channel (Rattus norvegicus, UniProt O35433).
T2 construct: expressed in transfected cells
The test is described as follows: Intracellular Ca2+ elevation in HEK-293 cells over-expressing rat TRPV1. It is filed as cell-based. The conditions noted are these: for Emax: HEK293, read-out: Maximal response (% ionomycin). As to the method: as §1, §2, §3, §4

Setting [3] is: HEK293, TRPA1-HEK-293 cells, relative to mustard oil 100 μM, read-out: Maximal response (% of mustard oil 100 μM).
Where [4] appears, read: TRPA1-HEK-293 cells, Fluo-4, read-out: -logEC50% (M) for the elevation of [Ca2+]i (converted).
Where [5] appears, read: TRPA1, summary of Table 1, read-out: EC50 values (range given).

Read-outs that look alike come from different tables or passages of the source.

T2 sequence (O35433 whole entry): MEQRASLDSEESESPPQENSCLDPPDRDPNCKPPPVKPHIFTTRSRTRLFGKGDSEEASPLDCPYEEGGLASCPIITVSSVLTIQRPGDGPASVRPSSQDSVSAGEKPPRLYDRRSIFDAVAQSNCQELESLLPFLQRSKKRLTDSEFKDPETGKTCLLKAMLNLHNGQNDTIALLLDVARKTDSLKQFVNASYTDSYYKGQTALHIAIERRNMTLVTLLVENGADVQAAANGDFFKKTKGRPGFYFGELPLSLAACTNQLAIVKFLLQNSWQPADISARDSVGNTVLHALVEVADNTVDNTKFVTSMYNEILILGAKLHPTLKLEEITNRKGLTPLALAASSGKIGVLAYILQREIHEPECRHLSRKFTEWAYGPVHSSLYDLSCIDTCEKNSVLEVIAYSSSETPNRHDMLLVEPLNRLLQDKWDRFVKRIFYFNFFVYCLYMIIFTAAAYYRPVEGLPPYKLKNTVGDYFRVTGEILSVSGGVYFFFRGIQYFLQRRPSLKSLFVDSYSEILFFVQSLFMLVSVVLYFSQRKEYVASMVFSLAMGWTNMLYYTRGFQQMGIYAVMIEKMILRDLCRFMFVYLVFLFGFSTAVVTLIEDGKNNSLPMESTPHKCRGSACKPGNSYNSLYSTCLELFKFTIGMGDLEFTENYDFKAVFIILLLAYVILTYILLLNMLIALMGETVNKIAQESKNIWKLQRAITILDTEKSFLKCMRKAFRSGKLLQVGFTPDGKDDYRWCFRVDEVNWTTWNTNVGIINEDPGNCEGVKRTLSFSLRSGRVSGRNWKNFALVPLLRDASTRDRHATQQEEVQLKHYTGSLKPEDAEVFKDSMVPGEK
T1 sequence (Q6RI86 whole entry): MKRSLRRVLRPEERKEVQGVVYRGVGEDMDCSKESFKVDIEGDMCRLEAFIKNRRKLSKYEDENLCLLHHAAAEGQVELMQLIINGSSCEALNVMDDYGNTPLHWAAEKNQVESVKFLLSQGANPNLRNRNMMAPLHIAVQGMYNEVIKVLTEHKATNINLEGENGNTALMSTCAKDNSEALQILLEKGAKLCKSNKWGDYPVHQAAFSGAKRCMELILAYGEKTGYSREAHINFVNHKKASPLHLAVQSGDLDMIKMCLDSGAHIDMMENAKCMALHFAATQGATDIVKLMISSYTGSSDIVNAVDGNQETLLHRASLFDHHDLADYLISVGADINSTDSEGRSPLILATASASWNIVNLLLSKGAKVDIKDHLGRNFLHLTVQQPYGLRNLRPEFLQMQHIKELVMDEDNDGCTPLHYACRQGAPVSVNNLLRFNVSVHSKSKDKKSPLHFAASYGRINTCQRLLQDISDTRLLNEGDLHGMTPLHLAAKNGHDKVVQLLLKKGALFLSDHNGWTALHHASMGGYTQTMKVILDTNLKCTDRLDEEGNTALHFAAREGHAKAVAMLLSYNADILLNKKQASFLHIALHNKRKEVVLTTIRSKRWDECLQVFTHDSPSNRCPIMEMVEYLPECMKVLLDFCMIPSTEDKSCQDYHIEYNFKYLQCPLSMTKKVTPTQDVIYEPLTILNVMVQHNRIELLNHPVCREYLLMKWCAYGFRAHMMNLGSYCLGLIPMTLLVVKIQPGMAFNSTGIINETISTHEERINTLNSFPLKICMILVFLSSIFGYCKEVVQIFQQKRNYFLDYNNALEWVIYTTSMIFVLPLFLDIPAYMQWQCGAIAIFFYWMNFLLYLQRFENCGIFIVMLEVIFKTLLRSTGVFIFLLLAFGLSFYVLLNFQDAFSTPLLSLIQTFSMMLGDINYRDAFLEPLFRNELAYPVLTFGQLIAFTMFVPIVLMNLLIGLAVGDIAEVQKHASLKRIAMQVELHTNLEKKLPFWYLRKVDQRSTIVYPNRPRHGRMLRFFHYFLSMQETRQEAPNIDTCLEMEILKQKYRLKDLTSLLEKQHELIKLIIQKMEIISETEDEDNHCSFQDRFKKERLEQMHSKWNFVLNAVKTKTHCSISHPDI

For `CCCCCc1cc(O)c2c(c1)OC(C)(C)[C@@H]1CCC(C)=C[C@@H]21` [THC, tetrahydrocannabinol], the Emax in test [1] (setting [3]) was determined as 117 ± 12%. Moreover, the EC50 in test [1] (setting [4]) is 1.86e-07 M.
`O=CC=Cc1ccccc1` [Cinnamaldehyde, cinnamaldehyde, reference compound]: in test [1] (setting [3]), the Emax amounted to 99.1 ± 9%. In addition, the EC50 in test [1] (setting [4]) was 1.29e-05 M.
As to `CCCCCc1cc(O)c(C/C=C(\C)CCC=C(C)C)c(O)c1` [CBG, cannabigerol], in test [2], the EC50 came out at 1000 nM and the Emax was determined as 54.4 ± 5.4%.
In the case of `C=C(C)[C@@H]1CCC(C)=C[C@H]1c1c(O)cc(CCC)cc1O` [CBDV, cannabidivarin], in test [2], the EC50 was 1400 nM and the Emax amounted to 19.8 ± 1.9%.
Regarding `CCCCCc1cc(O)c2c(c1)OC(C)(CCC=C(C)C)C=C2` (centres unmarked) [CBC, cannabichromene], the Emax in test [1] (setting [3]) is 118 ± 10%; in test [2], 9 ± 4.9%. In addition, the EC50 in test [1] (setting [4]) was 3.31e-08 M; in test [1] (setting [5]) it was 6e-08 to 1e-07 M; in test [2], 24200 nM.
Turning to `C=C(C)[C@@H]1CCC(C)=C[C@H]1c1c(O)cc(CCCCC)c(C(=O)O)c1O` [CBDA, cannabidiolic acid], the Emax in test [1] (setting [3]) amounted to 48.2 ± 6%. For the same compound, the EC50 in test [1] (setting [4]) is 8.13e-07 M.
For `C=CCN=C=S` [Mustard oil (allyl isothiocyanate), allyl isothiocyanate, reference compound], the Emax at 100 µM in test [1] (setting [3]) came out at 100 ± 11%.
As to `CCCCCc1cc2c(c(O)c1C(=O)O)[C@@H]1C=C(C)CC[C@H]1C(C)(C)O2` [THCA, tetrahydrocannabinolic acid], in test [1] (TRPA1-HEK-293 cells, relative to mustard oil 100 μM), the “Maximal response (% of mustard oil 100 μM)” value is listed as 70.1 ± 8%.
For the compound `COc1cc(CNC(=O)CCCC/C=C/C(C)C)ccc1O` [Capsaicin, reference compound], the Emax in test [2] was 68.6 ± 1.2%.
For `C=C(C)[C@@H]1CCC(C)=C[C@H]1c1c(O)cc(CCCCC)cc1O` [CBD, cannabidiol], the figures for the Emax in test [1] (setting [3]) and in test [2] were 86.9 ± 8% and 50 ± 1%, respectively. In addition, the EC50 in test [1] (setting [4]) is 8.51e-08 M; in test [1] (setting [5]), 6e-08 to 1e-07 M; in test [2], 700 nM.
